# Results from ChEMBL document CHEMBL1154324, “Activity of mangosteen xanthones and teleocidin a-2 in death receptor expression enhancement and tumor necrosis factor related apoptosis-inducing ligand assays” (J Nat Prod, 2010).
# Molecular target: Tumor necrosis factor receptor superfamily member 10B (Homo sapiens) (UniProt O14763)
# Assay: Induction of DR5 promoter activity in SacI gene expressing human DLD1 cells at 10 to 30 uM after 24 hrs by luciferase reporter gene assay relative to control
# Assay type: cell-based
# Conditions: DLD-1
# Tumor necrosis factor receptor superfamily member 10B (Homo sapiens), sequence (O14763 whole entry): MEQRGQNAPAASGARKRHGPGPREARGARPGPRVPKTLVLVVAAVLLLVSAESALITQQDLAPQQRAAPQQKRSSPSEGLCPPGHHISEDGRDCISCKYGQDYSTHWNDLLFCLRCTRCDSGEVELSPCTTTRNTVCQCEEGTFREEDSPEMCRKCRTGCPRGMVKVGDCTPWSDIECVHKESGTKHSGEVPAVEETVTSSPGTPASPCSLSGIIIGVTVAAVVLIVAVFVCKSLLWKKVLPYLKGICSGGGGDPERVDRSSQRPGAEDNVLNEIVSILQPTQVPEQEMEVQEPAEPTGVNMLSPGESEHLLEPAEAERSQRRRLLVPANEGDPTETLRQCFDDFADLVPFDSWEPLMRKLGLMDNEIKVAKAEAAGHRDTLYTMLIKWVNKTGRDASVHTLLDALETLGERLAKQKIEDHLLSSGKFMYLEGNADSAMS
row,SMILES,fold change (FC)
1,COc1c(O)cc2oc3cc4c(c(O)c3c(=O)c2c1CC=C(C)C)C=CC(C)(C)O4,4
2,CC(C)=CCc1c(O)c(CC=C(C)C)c2oc3c(O)ccc(O)c3c(=O)c2c1O,3.1
3,COc1c(O)cc2oc3cc(O)c(CC=C(C)C)c(O)c3c(=O)c2c1CC=C(C)C,3.8
